Source: patent US20070293581A1, “Methods for Buccal, Lingual or Sublingual Dosing Regimens of Epinephrine for the Treatment of Allergic Emergencies” (priority 2006, published 2007)
Read-outs that look alike come from different tables or passages of the source.

Test system: patient experiencing an allergic emergency (symptoms of anaphylaxis)
Experimental: A patient experiencing an allergic emergency initiates treatment at the onset of shortness of breath by self administering 40 mg of epinephrine free base in a buccal dosage form.
A patient experiencing an allergic emergency initiates treatment at the onset of shortness of breath by self administering 40 mg of epinephrine free base in a buccal dosage form. […] After another approximately 5 minutes pass without amelioration of the symptoms of anaphylaxis, the patient self administers a third buccal dosage form comprising 20 mg of epinephrine free base.
A patient experiencing an allergic emergency initiates treatment at the onset of shortness of breath by self administering 40 mg of epinephrine free base in a lingual dosage form. After approximately 5 minutes pass without amelioration of the symptoms of anaphylaxis, the patient self administers a second lingual dosage form comprising 40 mg of epinephrine free base. After another approximately 5 minutes pass without amelioration of the symptoms of anaphylaxis, the patient self administers a third lingual dosage form comprising 20 mg of epinephrine free base.

Measured: patient's symptoms of anaphylaxis

CNC[C@H](O)c1ccc(O)c(O)c1 [epinephrine free base, epinephrine]
relieved: Example 1: buccal dosage form, 40 mg then second 40 mg after approx. 5 minutes, outcome within about five minutes after the second dose | Example 2: buccal dosage form, 40 mg, then 20 mg at approx. 5 minute intervals, outcome within about five minutes after the third dose | Example 3: lingual dosage form, 40 mg, then 20 mg at approx. 5 minute intervals, outcome within about five minutes after the third dose
